pIC50: −log10 of the molar value.
The molecules below were run against T1, OX1 (Homo sapiens, UniProt O43613) (assay: Orexin receptor cell-based functional assay, [Ca2+]i by FLIPR, CHO-OX1 cells). Conditions: Table 2; CHO-OX1 cells, EC90 of OXA; read-out: IC50 Bioactivity OX1.
T1 construct: expressed in transfected cells; host or cells: CHO (CHO-OX1, kept under selection antibiotic)
T1 sequence (O43613 1-425): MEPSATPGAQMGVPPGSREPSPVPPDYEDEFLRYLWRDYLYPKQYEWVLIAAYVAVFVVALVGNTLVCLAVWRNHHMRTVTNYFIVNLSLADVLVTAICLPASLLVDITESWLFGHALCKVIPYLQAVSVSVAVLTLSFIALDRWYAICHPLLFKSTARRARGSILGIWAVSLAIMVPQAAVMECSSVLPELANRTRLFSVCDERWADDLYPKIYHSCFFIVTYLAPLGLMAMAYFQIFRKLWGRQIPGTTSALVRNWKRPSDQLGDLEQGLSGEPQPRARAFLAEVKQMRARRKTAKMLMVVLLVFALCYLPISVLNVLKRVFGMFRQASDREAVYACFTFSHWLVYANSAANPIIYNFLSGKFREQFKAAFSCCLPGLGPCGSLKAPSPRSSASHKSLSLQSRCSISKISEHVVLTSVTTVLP
Procedure: Measurement of [Ca^2+]i using a FLIPR: CHO—OX1 or CHO—OX2 cells are seeded into black-walled clear-base 384-well plates (Costar) at a density of 20,000 cells per well in F12-K medium supplemented with 10% FBS and selection antibiotic (500 ug/ml G418 or 15 ug/ml Blasticidin) and cultured overnight. The cells are incubated with equal volume of calcium4 loading buffer (Molecular Devices, Inc.) containing 2.5 mM probenecid at 37° C. for 30 min, followed by putative OX1 or OX2 receptor antagonists (dose-range 0.1 nM-10 μM) for another 30 min.
The cells are incubated with equal volume of calcium6 loading buffer (Molecular Devices, Inc.) containing 2.5 mM probenecid at 37° C. for 2 h, followed by test compounds (dose-range 0.1 nM-10 μM) for another 30 min.

Row | Compound | pIC50
1 | Cc1nc(C(=O)N2CC(O)CCC2CNC(=O)c2cccc3cccnc23)c(-c2cccc(F)c2)s1 (racemic) [Example 51, N-((1-(5-(3-Fluorophenyl)-2-methylthiazole-4-carbonyl)-5-hydroxypiperidin-2-yl)methyl)quinoline-8-carboxamide] | 8.00
2 | Cc1nc(C(=O)N2CC(F)(F)CCC2CNC(=O)c2cccc3cccnc23)c(-c2cccc(F)c2)s1 (racemic) [Example 52, rac-N-((5,5-Difluoro-1-(5-(3-fluorophenyl)-2-methylthiazole-4-carbonyl)piperidin-2-yl)methyl)quinoline-8-carboxamide] | 9.00
3 | Cc1nc(C(=O)N2CC(N)CCC2CNC(=O)c2cccc3cccnc23)c(-c2cccc(F)c2)s1 (racemic) [Example 53, N-((5-Amino-1-(5-(3-fluorophenyl)-2-methylthiazole-4-carbonyl)piperidin-2-yl)methyl)quinoline-8-carboxamide] | 7.19
4 | Cc1nc(C(=O)N2CC(NCCO)CCC2CNC(=O)c2cccc3cccnc23)c(-c2cccc(F)c2)s1 (racemic) [Example 54, N-((1-(5-(3-Fluorophenyl)-2-methylthiazole-4-carbonyl)-5-(2-hydroxyethylamino)piperidin-2-yl)methyl)quinoline-8-carboxamide] | 6.74
5 | Cc1nc(C(=O)N2CC(F)(F)CCC2CNC(=O)c2cccc3cccnc23)c(-c2ccccc2)s1 (racemic) [Example 56, rac-N-((5,5-Difluoro-1-(2-methyl-5-phenylthiazole-4-carbonyl)piperidin-2-yl)methyl)quinoline-8-carboxamide] | > 7.00
6 | Cc1cc2c(C(=O)NCC3CCC(F)(F)CN3C(=O)c3nc(C)sc3-c3ccc(F)cc3)cccc2o1 (racemic) [Example 57, rac-N-((5,5-Difluoro-1-(5-(4-fluorophenyl)-2-methylthiazole-4-carbonyl)piperidin-2-yl)methyl)-2-methylbenzofuran-4-carboxamide] | > 7.00
7 | COc1c(F)cccc1C(=O)NCC1CCCC(C)N1C(=O)c1nc(C)sc1-c1ccc(F)cc1 (racemic) [Example 60, rac-3-Fluoro-N-((1-(5-(4-fluorophenyl)-2-methylthiazole-4-carbonyl)-6-methylpiperidin-2-yl)methyl)-2-methoxybenzamide] | 9.00
8 | Cc1cc2c(C(=O)NCC3CCCC(C)N3C(=O)c3nc(C)sc3-c3ccc(F)cc3)cccc2o1 (racemic) [Example 61, rac-N-((1-(5-(4-Fluorophenyl)-2-methylthiazole-4-carbonyl)-6-methylpiperidin-2-yl)methyl)-2-methylbenzofuran-4-carboxamide] | 8.15
9 | Cc1nc(C(=O)N2CCC[C@@H](C)[C@H]2CNC(=O)c2cccc3occc23)c(-c2ccc(F)cc2)s1 (racemic) [Example 63, rac-cis-N-((1-(5-(4-Fluorophenyl)-2-methylthiazole-4-carbonyl)-3-methylpiperidin-2-yl)methyl)benzofuran-4-carboxamide] | 8.70
10 | Cc1nc(-c2ccccc2)c(C(=O)N2C[C@@H]3CCCC[C@@H]3[C@H]2CNC(=O)c2cccc3cccnc23)s1 (racemic) [Example 64, N-(((1S,3aR,7aS)-2-(2-Methyl-4-phenylthiazole-5-carbonyl)octahydro-1H-isoindol-1-yl)methyl)quinoline-8-carboxamide] | 5.52
11 | O=C(NC[C@@H]1[C@H]2CCCC[C@H]2CN1C(=O)c1ccccc1-c1ccccc1)c1cccc2cccnc12 (racemic) [Example 66, N-(((1S,3aR,7aS)-2-(Biphenylcarbonyl)octahydro-1H-isoindol-1-yl)methyl)quinoline-8-carboxamide] | 6.46
12 | Cc1nc(C(=O)N2CCC[C@@H](C)[C@H]2CNc2nc3ccccc3s2)c(-c2ccc(F)cc2)s1 (racemic) [Example 72, rac-cis-(2-((Benzo[d]thiazol-2-ylamino)methyl)-3-methylpiperidin-1-yl)(5-(4-fluorophenyl)-2-methylthiazol-4-yl)methanone] | 8.22
13 | Cc1nc(C(=O)N2CCC[C@@H](C)[C@H]2CNc2ccc(C(F)(F)F)cn2)c(-c2ccccc2)s1 (racemic) [Example 73, rac-cis-(3-Methyl-2-(((5-(trifluoromethyl)pyridin-2-yl)amino)methyl)piperidin-1-yl)(2-methyl-5-phenylthiazol-4-yl)methanone] | > 8.00
14 | Cc1nc(C(=O)N2CCC[C@@H](C)[C@H]2CNc2cccc3cccnc23)c(-c2ccc(F)cc2)s1 (racemic) [Example 74, rac-cis-(3-Methyl-2-((quinolin-8-ylamino)methyl)piperidin-1-yl)(5-(4-fluorophenyl)-2-methylthiazol-4-yl)methanone] | 7.24

The remaining lines, values ahead:

Row | pIC50 | Compound
15 | 6.52 | CC[C@@H]1CCCN(C(=O)c2nc(C)sc2-c2ccc(F)cc2)[C@@H]1CNc1ccc(C(F)(F)F)cn1 (racemic) [Example 76, rac-cis-(3-Ethyl-2-(((5-(trifluoromethyl)pyridin-2-yl)amino)methyl)piperidin-1-yl)(5-(4-fluorophenyl)-2-methylthiazol-4-yl)methanone]
16 | 8.70 | CCc1cnc(NC[C@@H]2[C@H](CC)CCCN2C(=O)c2nc(C)sc2-c2ccc(F)cc2)nc1 (racemic) [Example 78, rac-cis-(3-Ethyl-2-(((5-ethylpyrimidin-2-yl)amino)methyl)piperidin-1-yl)(5-(4-fluorophenyl)-2-methylthiazol-4-yl)methanone]
17 | 6.85 | Cc1nc(C(=O)N2CCC[C@@H](C)[C@H]2COc2nc3ccccc3o2)c(-c2ccc(F)cc2)s1 (racemic) [Example 80, rac-cis-(2-((Benzo[d]oxazol-2-yloxy)methyl)-3-methylpiperidin-1-yl)(5-(4-fluorophenyl)-2-methylthiazol-4-yl)methanone]
18 | 8.40 | Cc1nc(C(=O)N2CCC[C@@H](C)[C@H]2CNc2ncc(Cl)cn2)c(-c2ccc(F)cc2)s1 (racemic) [Example 82, rac-cis-(2-(((5-Chloropyrimidin-2-yl)amino)methyl)-3-methylpiperidin-1-yl)(5-(4-fluorophenyl)-2-methylthiazol-4-yl)methanone]
19 | 7.52 | Cc1cnc(NC[C@@H]2[C@H](C)CCCN2C(=O)c2nc(C)sc2-c2ccc(F)cc2)nc1 (racemic) [Example 83, rac-cis-(3-Methyl-2-(((5-methylpyrimidin-2-yl)amino)methyl)piperidin-1-yl)(5-(4-fluorophenyl)-2-methylthiazol-4-yl)methanone]
20 | 7.46 | Cc1nc(C(=O)N2CCC[C@@H](C(C)C)[C@H]2CNc2nc3ccccc3o2)c(-c2ccc(F)cc2)s1 (racemic) [Example 84, rac-cis-((2S,3S)-2-((Benzo[d]oxazol-2-ylamino)methyl)-3-isopropylpiperidin-1-yl)(5-(4-fluorophenyl)-2-methylthiazol-4-yl)methanone]
21 | 7.66 | Cc1ccc(NC[C@@H]2[C@H](C)CCCN2C(=O)c2nc(C)sc2-c2ccc(F)cc2)nc1 (racemic) [Example 86, rac-cis-(3-Methyl-2-(((5-methylpyridin-2-yl)amino)methyl)piperidin-1-yl)(5-(4-fluorophenyl)-2-methylthiazol-4-yl)methanone]
22 | 6.66 | Cc1nc(C(=O)N2CCC[C@@H](C)[C@H]2CNc2cccc(C(F)(F)F)n2)c(-c2ccc(F)cc2)s1 (racemic) [Example 87, rac-cis-(3-Methyl-2-(((6-(trifluoromethyl)pyridin-2-yl)amino)methyl)piperidin-1-yl) (5-(4-fluorophenyl)-2-methylthiazol-4-yl)methanone]
23 | 7.38 | COc1cnc(NC[C@@H]2[C@H](C)CCCN2C(=O)c2nc(C)sc2-c2ccc(F)cc2)nc1 (racemic) [Example 88, rac-cis-(2-(((5-Methoxypyrimidin-2-yl)amino)methyl)-3-methylpiperidin-1-yl) (5-(4-fluorophenyl)-2-methylthiazol-4-yl)methanone]
24 | 6.85 | Cc1nc(C(=O)N2CCC[C@@H](C)[C@H]2CNc2ccc(C#N)cn2)c(-c2ccc(F)cc2)s1 (racemic) [Example 91, rac-cis-6-(((1-(5-(4-Fluorophenyl)-2-methylthiazole-4-carbonyl)-3-methylpiperidin-2-yl)methyl)amino)nicotinonitrile]
25 | 6.25 | CO[C@@H]1CCCN(C(=O)c2nc(C)sc2-c2ccc(F)cc2)[C@@H]1CNc1ccc(C(F)(F)F)cn1 (racemic) [Example 92, rac-cis-(3-Methoxy-2-(((5-(trifluoromethyl)pyridin-2-yl)amino)methyl)piperidin-1-yl) (5-(4-fluorophenyl)-2-methylthiazol-4-yl)methanone]
26 | 7.00 | CO[C@@H]1CCCN(C(=O)c2nc(C)sc2-c2ccc(F)cc2)[C@@H]1CNc1ncc(Cl)cn1 (racemic) [Example 93, rac-cis-(2-(((5-Chloropyrimidin-2-yl)amino)methyl)-3-methoxypiperidin-1-yl)(5-(4-fluorophenyl)-2-methylthiazol-4-yl)methanone]

Reference: US9440982B2 (Eolas Therapeutics, Inc., priority 2012, dated 2016)
